From patent US10766865B2, “PKM2 modulators and methods for their use” (TOLERO PHARMACEUTICALS, INC., priority 2012, dated 2020)

What was measured:
PKM2 [1] = target: T1, PKM2 (Homo sapiens, UniProt P14618); experiment: Cell-Based Pyruvate Kinase Activity Assay, NCI-H1299; design: host or cells: A549 or NCI-H1299 lung cancer cells; conditions: NCI-H1299, 30 minutes with compound, n = 4; read-out: Cellular PKM2 activation EC50
Protocol: (§1) Cell-Based Pyruvate Kinase Activity Assay
(§2) A549 or NCI-H1299 lung cancer cells were plated at 20,000 cells per well (96-well plate) in MEM media plus 10% FBS, with no additional glutamine or pyruvate. Following overnight incubation, cells were washed with PBS followed by 4 hour incubation in MEM media. Compounds were added to the cells in 1% final concentration DMSO. After 30 minutes, cells were lysed, and pyruvate kinase activity in lysates was determined by Pyruvate Kinase Activity Assay (BioVision, Milpitas, Calif.). Maximum velocity values were calculated from the kinetic data, and AC50 values were determined using Prism GraphPad Software (La Jolla, Calif.). Compound washout experiments were as described above, except after a 30 minute incubation with Example 244 (469 nM), the cells were washed with PBS followed by the addition of MEM media for the indicated time period, lysed and pyruvate kinase activity determined. Results are tabulated in Table 3 and presented graphically in FIGS. 6A and 6B.
Target sequence in this assay (P14618 2-531 limits assumed): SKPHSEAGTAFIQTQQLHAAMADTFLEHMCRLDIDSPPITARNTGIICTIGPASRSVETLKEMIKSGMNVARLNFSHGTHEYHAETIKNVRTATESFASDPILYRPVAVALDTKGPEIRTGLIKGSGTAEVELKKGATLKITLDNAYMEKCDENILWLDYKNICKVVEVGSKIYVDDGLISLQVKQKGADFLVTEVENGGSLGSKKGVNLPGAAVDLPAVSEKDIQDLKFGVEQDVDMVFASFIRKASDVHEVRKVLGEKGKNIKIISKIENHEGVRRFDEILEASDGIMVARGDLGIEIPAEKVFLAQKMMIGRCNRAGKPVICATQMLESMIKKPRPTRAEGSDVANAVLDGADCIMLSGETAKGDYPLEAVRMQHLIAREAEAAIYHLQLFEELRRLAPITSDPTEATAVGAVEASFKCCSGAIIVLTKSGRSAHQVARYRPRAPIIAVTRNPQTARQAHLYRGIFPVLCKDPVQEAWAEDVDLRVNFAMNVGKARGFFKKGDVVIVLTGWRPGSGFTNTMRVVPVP

PKM2 [2] = target: T1, PKM2; experiment: Cell-Based Pyruvate Kinase Activity Assay, A549; design: host or cells: A549 or NCI-H1299 lung cancer cells; conditions: A549, 30 minutes with compound, n = 4; read-out: Cellular PKM2 activation EC50
Protocol: as §1, §2
Target sequence in this assay (P14618 2-531 limits assumed): as above

PKM2 [3] = target: T1, PKM2; experiment: PKM2 Biochemical Assay
Target sequence in this assay (P14618 whole entry): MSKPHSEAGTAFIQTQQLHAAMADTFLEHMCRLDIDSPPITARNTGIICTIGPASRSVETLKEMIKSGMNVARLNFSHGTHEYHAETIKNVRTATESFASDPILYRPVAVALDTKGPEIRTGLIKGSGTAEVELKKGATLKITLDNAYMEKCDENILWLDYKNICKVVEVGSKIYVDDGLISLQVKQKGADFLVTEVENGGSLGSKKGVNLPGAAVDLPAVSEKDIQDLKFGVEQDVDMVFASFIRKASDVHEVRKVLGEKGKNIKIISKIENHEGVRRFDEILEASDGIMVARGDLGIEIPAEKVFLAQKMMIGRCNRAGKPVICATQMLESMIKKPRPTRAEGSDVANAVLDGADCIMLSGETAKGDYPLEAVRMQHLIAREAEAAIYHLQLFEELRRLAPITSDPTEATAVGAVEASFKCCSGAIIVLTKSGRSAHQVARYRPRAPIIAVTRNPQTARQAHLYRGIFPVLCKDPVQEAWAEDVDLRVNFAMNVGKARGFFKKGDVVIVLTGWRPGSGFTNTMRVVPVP

## O=C(c1cc(Cl)n[nH]1)N(Cc1ccc(O)cc1F)CC1CCC1 [Example 244, N-(2-fluoro-4-hydroxybenzyl)-3-chloro-N-(cyclobutylmethyl)-1H-pyrazole-5-carboxamide]
PKM2 [1]
  EC50: 300 ± 70 nM
PKM2 [2]
  EC50: 450 ± 180 nM
PKM2 [3]; read-out: % FBP (extent of maximal activation, relative to FBP)
  Emax: 107 ± 10%
PKM2 [3]; read-out: AC50 (concentration of half-maximal PKM2 activation), Table 2, n = 6 to 10
  AC50: 62 ± 23 nM
PKM2 [3]; relative to activity in DMSO controls (normalized to 100%), FIG. 1B
  Maximal PKM2 activity: approximately 600%
